Several values for one entry are separate records, joined by “and”; a condition that tells them apart may be missing. Equal values may be shown once. Read-outs that look alike come from different tables or passages of the source.
Assays:
Ub^+ and p62^+ puncta = test: ICC of Ub (FK2) and p62 puncta in HeLa cells; format: cell-based; details: Fig. 4i
Experimental: Fig. 4 Targeted autophagic delivery and degradation of misfolded protein cargoes using AUTOTACs with aggregate-binding warhead. a A model illustrating the mode of action of aggregate-targeting AUTOTAC. b Chemical structures of PBA-1105, PBA-1106, Anle138b-F105 and PBA-1105b. c In vitro p62 oligomerization assay in HEK293T cells incubated with the indicated compounds in (b). d WB in HEK293T cells treated with MG132 (1 μM, 24 h), HCQ (10 μM, 24 h), PBA-1105, YTK-1105, and PBA (1 μM, 24 h). e Identical to (d), but with Anle-F105. f ICC of HeLa cells treated with HCQ (10 μM, 24 h), MG132 (2 μM, 18 h) or both in the presence of PBA-1106, YOK-1106 or PBA (1 μM, 24 h). Scale bar, 10 μm. g Quantification of (f) (n = 3, 50 cells). h ICC of HeLa cells treated with Anle138b-F105 (1 μM, 24 h). Scale bar, 10 μm. i Quantification of (h) (n = 3, 50 cells). When indicated, n = 3 biologically independent experiments each counting 50 cells. Data are presented as mean values ± SD where relevant. P-values (from a two-sided unpaired t test): ***P < 7.66E−05. Source data are provided with this paper.
Cells were cultured on coverslips coated with poly-L-lysine (Sigma) to observe cellular localization of proteins. Using 4% paraformaldehyde in PBS (pH 7.4), the cells were fixed for 15 min at room temperature and washed three times for 5 min with PBS. After fixing, the cells were permeabilized with 0.5% Triton X-100 in PBS solution for 15 min and washed three times with PBS for 5 min. The cells were blocked containing 2% BSA in PBS solution for 1 h at room temperature. Subsequently, the cells were incubated with primary antibody diluted in 2% BSA/PBS solution overnight at 4 °C, followed by washing the cells three times for 10 min with PBS and incubated with Alexa Fluor-conjugated secondary antibody diluted in 2% BSA/PBS for 30 min at room temperature. Using a DAPI-containing mounting medium (Vector Laboratories), the coverslips were mounted on glass slides. Confocal images were taken by laser scanning confocal microscope 510 Meta (Zeiss) and analyzed by Zeiss LSM Image Browser (ver. 4.2.0.121). […] Quantification results are shown as mean ± S.D. or S.E.M. of three independent experiments

tauP301L = tauP301L (Homo sapiens, UniProt P10636, P618L); test: WB degradation of tauP301L in SH-SY5Y-tauP301L cells; format: cell-based; details: densitometry, dosage degradation, SH-SY5Y-Tau-TiFC; for Tau normalized to GAPDH and control, AVG %: average of N=3
Experimental: (§1) Adherent cells were washed with phosphate-buffered saline (PBS) and cell pellets were lysed in SDS-based sample buffer (277.8 mM Tris-HCI, pH 6.8, 4.4% LDS, 44.4% (v/v) glycerol) containing beta-mercaptoethanol. Alternatively, cell pellets or protein supernatants were lysed in 5X Laemmli sample buffer. Whole-cell lysates were separated using SDS-PAGE, and transferred onto polyvinyllidene difluoride membranes at 100 V for 2 h at 4 °C. The membrane was incubated with a blocking solution consisting 4% skim milk in PBS solution for 30 min at room temperature and incubated with primary antibodies overnight, followed by incubation with host-specific HRP-conjugated secondary antibodies (1:10000 dilution). For signal detection, the membrane was developed with a mixture of ECL solution (Thermo Fisher Scientific) using X-ray films. Densitometry of developed bands was measured and analyzed with ImageJ (NIH, Bethesda).

[1] = molecular target: T1, methionine aminopeptidase 2 (MetAP2) (Homo sapiens, UniProt P50579); test: Western blot degradation of MetAP2; format: cell-based; details: 293T, 24 h
T1 construct: Targeted autophagic degradation of endogenous oncoproteins by AUTOTAC; endogenous in cells; host or cells: HEK293 / HEK293T, U87-MG
Experimental: as §1

ACHN cells = test: WST-based cell viability assay in ACHN cells; details: for WST assay viability, AVG % / WST assay raw reading / WST assay viability relative to con = 100: ACHN; for WST assay raw reading / WST assay viability relative to con = 100: duplicates
LNCaP cells [2] = test: WST-based cell viability assay in LNCaP cells; details: LNcaP, duplicates
in vitro = details: human
LNCaP cells [3] = details: human
[4] = system: U87-MG glioblastoma cells; test: Wound healing assay in U87-MG cells; format: cell-based; design: wound area, single experiment / wound area, Average: unit not given here; details: Fig. S4j
Experimental: To analyze cell migration in two dimensions, U-87 MG or ACHN cells were plated to a monolayer. Cells were scratched with a sterile 10 μl pipette tip and the debris was removed using medium. Cells were treated with compounds and incubated for different time to monitor cell behavior. Photographs were obtained using a microscope at different time point.

[5] = WST assay viability relative to con = 100
[6] = 4h, relative to 0h, con 63.7844
[7] = 12h, relative to 0h, con 49.0497
[8] = 24h, relative to 0h, con 11.2855

tauP301L, sequence (P10636 1-441 isoform P10636-8 P301L): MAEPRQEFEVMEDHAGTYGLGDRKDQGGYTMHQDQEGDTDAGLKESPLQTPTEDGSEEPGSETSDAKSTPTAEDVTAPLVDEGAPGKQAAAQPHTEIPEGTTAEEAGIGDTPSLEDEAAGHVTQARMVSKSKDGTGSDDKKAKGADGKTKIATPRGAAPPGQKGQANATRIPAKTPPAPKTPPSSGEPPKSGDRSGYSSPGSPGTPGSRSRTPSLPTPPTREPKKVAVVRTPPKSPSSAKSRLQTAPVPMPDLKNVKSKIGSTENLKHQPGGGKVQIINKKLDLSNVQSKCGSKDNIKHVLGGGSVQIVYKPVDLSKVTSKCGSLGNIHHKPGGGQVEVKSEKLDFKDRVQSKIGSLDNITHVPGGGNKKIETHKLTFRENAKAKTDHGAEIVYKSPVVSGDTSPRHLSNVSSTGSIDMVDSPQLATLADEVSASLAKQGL
T1 sequence (P50579 whole entry): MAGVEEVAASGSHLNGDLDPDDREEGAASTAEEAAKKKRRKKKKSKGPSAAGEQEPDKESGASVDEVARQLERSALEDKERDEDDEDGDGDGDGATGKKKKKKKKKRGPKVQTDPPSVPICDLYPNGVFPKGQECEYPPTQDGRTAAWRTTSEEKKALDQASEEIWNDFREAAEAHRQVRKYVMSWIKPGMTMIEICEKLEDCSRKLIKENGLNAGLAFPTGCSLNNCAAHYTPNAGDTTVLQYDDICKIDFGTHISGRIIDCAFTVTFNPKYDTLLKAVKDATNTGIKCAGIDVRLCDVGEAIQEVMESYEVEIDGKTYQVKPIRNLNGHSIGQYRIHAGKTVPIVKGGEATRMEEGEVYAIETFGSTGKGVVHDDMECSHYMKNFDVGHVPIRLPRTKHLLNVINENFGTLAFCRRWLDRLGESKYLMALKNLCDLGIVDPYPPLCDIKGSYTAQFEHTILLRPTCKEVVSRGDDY

In the case of `Fc1ccc(COc2cccc(CNCCOCCOCCNc3cccc(-c4cc(-c5ccc6c(c5)OCO6)n[nH]4)c3)c2)cc1` [Anle.-F105], the “FK2 (Ub) / p62 colocalization, AVG of cells per 50 cells” value (Ub^+ and p62^+ puncta; con vs Anle.-F105) is reported as 44.6667, the “FK2 (Ub) / p62 colocalization, percentage AVG” value (Ub^+ and p62^+ puncta; con vs Anle.-F105) is reported as 89.3333 percentage and the “FK2 (Ub) / p62 colocalization, cells counted per 50 cells (individual replicates)” value (Ub^+ and p62^+ puncta; con vs Anle.-F105, count out of 50 cells) is reported as 44 and 42 and 48. The “Tau normalized to GAPDH and control, AVG %” value (“Tau normalized … AVG %” for short) (tauP301L; 1 nM) was 89.5946%, the “Tau normalized … AVG %” value (tauP301L; 10 nM) was 39.4372% and the “Tau normalized … AVG %” value (tauP301L; 100 nM) was 27.9865%. The “Tau normalized … AVG %” value (tauP301L; 1 uM) was 22.4452%, the “Tau normalized … AVG %” value (tauP301L; 2.5uM) was 20.2653% and the remaining activity at 2.5 µM (tauP301L; 2.5uM, read-out: (Tau normalized to GAPDH) normalized to control, percentage (individual replicates N=1, N=2, N=3)) was 14.5%. The “Tau normalized … AVG %” value (tauP301L; 5uM) was 9.605%, the remaining activity at 5 µM (tauP301L; 5uM, read-out: (Tau normalized to GAPDH) normalized to control, percentage (individual replicates N=1, N=2, N=3)) was 9.88% and the “Tau normalized … AVG %” value (tauP301L; 10uM) was 11.8682%. For the same compound, the remaining activity at 10 µM (tauP301L; 10uM, read-out: (Tau normalized to GAPDH) normalized to control, percentage (individual replicates N=1, N=2, N=3)) was 10.3%.
For `CO[C@@H]1[C@H](OC(=O)/C=C/C=C/C=C/C=C/C(=O)O)CC[C@]2(CO2)[C@H]1[C@@]1(C)O[C@@H]1CC=C(C)C` [Fumagillin, reference compound], the “MetAP2 normalized to control, AVG %” value ([1]; 2.5uM) was 147.616% and the “MetAP2 normalized to control, AVG %” value ([1]; 10uM) was 145.983%.
With `Oc1ccc(-c2c(-c3ccccc3)nn3c(C(F)(F)F)cc(C(F)(F)F)nc23)cc1` [PHTPP, reference compound] the IC50 (ACHN cells; ACHN cells, WST-based viability assay, read-out: cytotoxicity IC50) was 18 µM, the “WST assay viability, AVG %” value (ACHN cells; 0.01uM) was 98.8656% and the “WST assay raw reading” value (ACHN cells; 0.01uM) was 1.014 and 0.955. The “WST assay viability relative to con = 100” value (ACHN cells; 0.01uM) was 102.269 and 95.4624, the “WST assay viability, AVG %” value (ACHN cells; 0.1uM) was 95.5201% and the “WST assay raw reading” value (ACHN cells; 0.1uM) was 0.951 and 0.96. The “WST assay viability relative to con = 100” value (ACHN cells; 0.1uM) was 95.001 and 96.0392, the “WST assay viability, AVG %” value (ACHN cells; 1uM) was 90.0981% and the “WST assay raw reading” value (ACHN cells; 1uM) was 0.95 and 0.867. For the same compound, the “WST assay viability relative to con = 100” value (ACHN cells; 1uM) was 94.8856 and 85.3105, the “WST assay viability, AVG %” value (ACHN cells; 10uM) was 86.1757% and the “WST assay raw reading” value (ACHN cells; 10uM) was 0.866 and 0.883. For the same compound, the “WST assay viability relative to con = 100” value (ACHN cells; 10uM) was 85.1952 and 87.1563, the “WST assay viability, AVG %” value (ACHN cells; 50uM) was 10.8441% and the “WST assay raw reading” value (ACHN cells; 50uM) was 0.239 and 0.204. The “WST assay viability relative to con = 100” value (ACHN cells; 50uM) was 12.8629 and 8.825, the “WST assay viability, AVG %” value (ACHN cells; 100uM) was 2.365% and the “WST assay raw reading” value (ACHN cells; 100uM) was 0.151 and 0.145. The “WST assay viability relative to con = 100” value (ACHN cells; 100uM) was 2.711 and 2.019.
In the case of `C=CC1(C)OC(=O)N(c2cc(Cl)cc(Cl)c2)C1=O` (stereo not shown) [Vinclozolin], the “WST assay raw reading” value (LNCaP cells [2]; 0.01uM) is reported as 2.034 and 2.182, the “WST assay raw reading” value (LNCaP cells [2]; 0.1uM) is reported as 1.931 and 2.185 and the “WST assay raw reading” value (LNCaP cells [2]; 1uM) is reported as 1.901 and 2.054. The “WST assay raw reading” value (LNCaP cells [2]; 10uM) was 1.962 and 2.18, the “WST assay raw reading” value (LNCaP cells [2]; 50uM) was 1.999 and 2.276 and the “WST assay raw reading” value (LNCaP cells [2]; 100uM) was 2.333 and 2.115. For the same compound, the viability at 0.01 µM (in vitro; [5]) was 96.4%, the viability at 0.1 µM (in vitro; [5]) was 91.3% and the viability at 1 µM (in vitro; [5]) was 89.8%. For the same compound, the viability at 10 µM (in vitro; [5]) was 92.8%, the viability at 50 µM (in vitro; [5]) was 94.7% and the viability at 100 µM (in vitro; [5]) was 111%. For the same compound, the viability at 0.01 µM (in vitro; WST assay viability, AVG %) was 100%, the viability at 0.1 µM (in vitro; WST assay viability, AVG %) was 97.6% and the viability at 1 µM (in vitro; WST assay viability, AVG %) was 93.6%. For the same compound, the viability at 10 µM (in vitro; WST assay viability, AVG %) was 98.3%, the viability at 50 µM (in vitro; WST assay viability, AVG %) was 102% and the viability at 100 µM (in vitro; WST assay viability, AVG %) was 106%. For the same compound, the “WST assay viability relative to con = 100” value (LNCaP cells [3]; 0.01 µM) was 103.812, the “WST assay viability relative to con = 100” value (LNCaP cells [3]; 0.1 µM) was 103.962 and the “WST assay viability relative to con = 100” value (LNCaP cells [3]; 1 µM) was 97.4197. The “WST assay viability relative to con = 100” value (LNCaP cells [3]; 10 µM) was 103.712, the “WST assay viability relative to con = 100” value (LNCaP cells [3]; 50 µM) was 108.507 and the “WST assay viability relative to con = 100” value (LNCaP cells [3]; 100 µM) was 100.466.
With `COC1C(OC(=O)C=CC=CC=CC=CC(=O)NCCOCCOCCNCc2cccc(OCc3ccccc3)c2)CCC2(CO2)C1C1(C)OC1CC=C(C)C` (stereo not shown) [fuma-105] the “wound area, single experiment” value ([4]; 0h) was 1322200 and 1143900 and 1293400, the “wound area, Average %” value ([4]; 0h (reference = 100)) was 100% and the “wound area, Average” value ([4]; 0h, con 1278325) was 1253167. The “wound area, single experiment” value ([4]; 4h) was 1229909 and 1112400 and 1025300, the “wound area, Average” value ([4]; 4h, con 815372) was 1122536 and the “wound area, Average %” value [4, 6] was 89.576%. The “wound area, single experiment” value ([4]; 12h) was 999235 and 1073250 and 992572, the “wound area, Average” value ([4]; 12h, con 627015) was 1021686 and the “wound area, Average %” value [4, 7] was 81.5283%. The “wound area, single experiment” value ([4]; 24h) was 562341 and 671624 and 616277, the “wound area, Average” value ([4]; 24h, con 144265) was 616747 and the “wound area, Average %” value [4, 8] was 49.2151%.
For `COC1C(OC(=O)C=CC=CC=CC=CC(=O)O)CCC2(CO2)C1C1(C)OC1CC=C(C)C` (stereo not shown) [fuma], the “wound area, single experiment” value ([4]; 0h) was 1171666 and 1405232 and 1275616, the “wound area, Average %” value ([4]; 0h (reference = 100)) was 100% and the “wound area, Average” value ([4]; 0h, con 1278325) was 1284171. For the same compound, the “wound area, single experiment” value ([4]; 4h) was 1044299 and 1099925 and 1033344, the “wound area, Average” value ([4]; 4h, con 815372) was 1059189 and the “wound area, Average %” value [4, 6] was 82.4804%. For the same compound, the “wound area, single experiment” value ([4]; 12h) was 806233 and 764432, the “wound area, Average” value ([4]; 12h, con 627015) was 778366 and the “wound area, Average %” value [4, 7] was 60.6123%. The “wound area, single experiment” value ([4]; 24h) was 429520 and 509220, the “wound area, Average” value ([4]; 24h, con 144265) was 482653 and the “wound area, Average %” value [4, 8] was 37.5848%.
